# In ChEMBL document CHEMBL6134824, “LPS-enriched interaction drives spectrum conversion in antimicrobial peptides: Design and optimization of AA16 derivatives for targeting gram-negative bacteria” (Eur J Med Chem, 2025):
# pKd: −log10 of the molar value. Activity calls are given as the source filed them. No cut-off for these calls is given here.
# Columns and labels:
# Staphylococcus aureus [1] = experiment: Antibacterial activity against Staphylococcus aureus NCTC 10788 incubated for 16 hrs under shaking condition by standard broth microdilution method; type: functional
# Pseudomonas aeruginosa [2] = experiment: Antibacterial activity against Pseudomonas aeruginosa ATCC 27853 incubated for 16 hrs under shaking condition by standard broth microdilution method; type: functional
# Cell membrane [3] = experiment: Induction of cytoplasmic membrane depolarization in […] assessed as increase in fluorescence intensity by DISC3-5 dye based fluorescence analysis; type: subcellular
# [4] = Hemolytic activity at mouse Red blood cell assessed as hemolysis; type: toxicity, cell-based; conditions: erythrocyte
# Staphylococcus aureus [5] = experiment: Antibacterial activity against methicillin-resistant Staphylococcus aureus ATCC 43300 incubated for 16 hrs under shaking condition by standard broth microdilution method; type: functional
# Escherichia coli [6] = experiment: Antibacterial activity against Escherichia coli NCTC 10418 incubated for 16 hrs under shaking condition by standard broth microdilution method; type: functional
# [7] = Hemolytic activity at horse Erythrocyte assessed as hemolysis; type: toxicity, cell-based, Equus caballus; conditions: horse erythrocytes
# Lipopolysaccharide (LPS) [8] = experiment: Binding affinity to LPS (unknown origin) assessed as dissociation constant by MST analysis
# Lipopolysaccharide (LPS) [9] = experiment: Disaggregation of FITC-labeled Escherichia coli LPS assessed as fluorescence intensity at 0.01 uM measured for 30 mins relative to control
# Pseudomonas aeruginosa [10] = experiment: Antibacterial activity against Pseudomonas aeruginosa TL 11004 incubated for 16 hrs under shaking condition by standard broth microdilution method; type: functional
# Cell membrane [11] = experiment: Induction of cytoplasmic membrane depolarization in […] assessed as change in fluorescence intensity by DISC3-5 dye based fluorescence analysis; type: subcellular
# Escherichia coli [12] = experiment: Antibacterial activity against Escherichia coli CMCC 44102 incubated for 16 hrs under shaking condition by standard broth microdilution method; type: functional
# Pseudomonas aeruginosa [13] = experiment: Antibacterial activity against Pseudomonas aeruginosa TL 11001 incubated for 16 hrs under shaking condition by standard broth microdilution method; type: functional
# Cell membrane [14] = experiment: Induction of cell membrane depolarization in Pseudomonas aeruginosa assessed as fluorescence intensity by DISC3-5 dye based fluorescence analysis; type: subcellular
# Klebsiella pneumoniae = experiment: Antibacterial activity against Klebsiella pneumoniae FK 16298 incubated for 16 hrs under shaking condition by standard broth microdilution method; type: functional
# Pseudomonas aeruginosa [15] = experiment: Antibacterial activity against Pseudomonas aeruginosa TL 11005 incubated for 16 hrs under shaking condition by standard broth microdilution method; type: functional
# Escherichia coli [16] = experiment: Antibacterial activity against Escherichia coli ATCC 25922 incubated for 16 hrs under shaking condition by standard broth microdilution method; type: functional
# Escherichia coli [17] = experiment: Antibacterial activity against Escherichia coli DC 29755 incubated for 16 hrs under shaking condition by standard broth microdilution method; type: functional
# Cell membrane [18] = experiment: Induction of outer membrane permeability in Pseudomonas aeruginosa assessed as fluorescence intensity by 1-N-Nphenylnaphthylamine fluorescent probe based analysis; type: subcellular
# Cell membrane [19] = experiment: Induction of cytoplasmic membrane depolarization in Pseudomonas aeruginosa assessed as change in fluorescence intensity by DISC3-5 dye based fluorescence analysis; type: subcellular
# Lipid bilayer = experiment: Disruption of membrane integrity in bacterial cell membrane mimic POPC/POPG LUVs assessed as calcein leakage measured for 30 mins by fluorescence based analysis
# Cell membrane [20] = experiment: Disruption of cell membrane integrity in Staphylococcus aureus assessed as reduction in green to red fluorescence by STYO 9 and PI staining based confocal microscopy analysis; type: subcellular
# Cell membrane [21] = experiment: Disruption of cell membrane integrity in methicillin-resistant Staphylococcus aureus assessed as reduction in green to red fluorescence by STYO 9 and PI staining based confocal microscopy analysis; type: subcellular
# Cell membrane [22] = experiment: Induction of inner membrane disruption in […] assessed as change in fluorescence intensity at 8 times MIC by DISC3-5 dye based fluorescence analysis; type: subcellular
# Cell membrane [23] = experiment: Induction of inner membrane disruption in Pseudomonas aeruginosa assessed as fluorescence intensity at 8 times MIC by DISC3-5 dye based fluorescence analysis; type: subcellular
# Lipopolysaccharide (LPS) [24] = experiment: Disaggregation of FITC-labeled Escherichia coli LPS assessed as change in fluorescence intensity at 0.01 to 100 uM measured for 30 mins; conditions: dose 0.01-100 µM
# Staphylococcus aureus [25] = experiment: Antibacterial activity against Staphylococcus aureus incubated for 16 hrs under shaking condition in presence of LPS by standard broth microdilution method; type: functional, organism-based
# Lipopolysaccharide (LPS) [26] = experiment: Disaggregation of FITC-labeled Escherichia coli LPS assessed as change in fluorescence intensity measured for 30 mins; conditions: dose 0.1-10 µM
# Escherichia coli [27] = experiment: Antibacterial activity against Escherichia coli infected in skin wound infection ICR mouse model assessed as reduction in wound area at 40 ug measured after 7 days by photographic analysis; type: functional; set-up: scale not given: the % may be the effect or the level left; conditions: dose 40 µg; time 7 day
# Escherichia coli [28] = experiment: Antibacterial activity against Escherichia coli infected in skin wound infection ICR mouse model assessed as wound scabbing at 40 ug measured after 3 days by photographic analysis; type: functional, organism-based; conditions: dose 40.0 µg, time 3.0 day
# Lipopolysaccharide (LPS) [29] = experiment: Disaggregation of FITC-labeled Escherichia coli LPS assessed as fluorescence intensity at 1 uM measured for 30 mins relative to control
# Lipopolysaccharide (LPS) [30] = experiment: Binding affinity to LPS (unknown origin) at 4 microg/ml relative to control; conditions: dose 4.0 µg/ml
# Escherichia coli [31] = experiment: Antibacterial activity against Escherichia coli infected in skin wound infection ICR mouse model assessed as wound scabbing at 20 ug measured after 5 days by photographic analysis; type: functional, organism-based; conditions: dose 20.0 µg, time 5.0 day
# Escherichia coli [32] = experiment: Antibacterial activity against Escherichia coli infected in skin wound infection ICR mouse model assessed as reduction in wound area at 20 ug measured after 7 days by photographic analysis; type: functional; set-up: scale not given: the % may be the effect or the level left; conditions: dose 20 µg; time 7 day
# Staphylococcus aureus [33] = experiment: Antibacterial activity against Staphylococcus aureus incubated for 60 mins in presence of LPS; type: functional, organism-based
# Cell membrane [34] = experiment: Induction of cytoplasmic membrane depolarization in Pseudomonas aeruginosa by DISC3-5 dye based fluorescence analysis; type: subcellular
# Cell membrane [35] = experiment: Induction of cytoplasmic membrane depolarization in Pseudomonas aeruginosa assessed as change in fluorescence intensity in protoplast by DISC3-5 dye based fluorescence analysis; type: subcellular
# Lipopolysaccharide (LPS) [36] = experiment: Disaggregation of FITC-labeled Escherichia coli LPS assessed as fluorescence intensity at 0.1 uM measured for 30 mins relative to control
# Cell membrane [37] = experiment: Disruption of cell membrane integrity in Staphylococcus aureus assessed as increase in red fluorescence intensity at 0.5 times MIC by STYO 9 and PI staining based confocal microscopy analysis; type: subcellular
# Cell membrane [38] = experiment: Disruption of cell membrane integrity in Escherichia coli assessed as increase in red fluorescence intensity at 0.5 times MIC by STYO 9 and PI staining based confocal microscopy analysis; type: subcellular
substance,measurement,setting,value
Ac-AARILSRILSGALRVL-NH2,MIC,Staphylococcus aureus [1],4 µg/mL
same,MIC,Pseudomonas aeruginosa [2],64 µg/mL
same,Activity,Cell membrane [3],Active
same,MHC,[4],161 µg/mL
same,MIC,Staphylococcus aureus [5],4 µg/mL
same,MIC,Escherichia coli [6],16 µg/mL
same,HC50,[7],161 µg/mL
Ac-AARILSRILRGALRVL-NH2,MIC,Staphylococcus aureus [1],4 µg/mL
same,MIC,Pseudomonas aeruginosa [2],16 µg/mL
same,MHC,[4],403 µg/mL
same,MIC,Staphylococcus aureus [5],8 µg/mL
same,MIC,Escherichia coli [6],32 µg/mL
same,HC50,[7],403 µg/mL
Ac-AARIFSRILFGALRVL-NH2,MIC,Staphylococcus aureus [1],8 µg/mL
same,MIC,Pseudomonas aeruginosa [2],32 µg/mL
same,MHC,[4],110 µg/mL
same,MIC,Staphylococcus aureus [5],4 µg/mL
same,MIC,Escherichia coli [6],32 µg/mL
same,HC50,[7],110 µg/mL
Ac-AAKILSKILKGALKVL-NH2,MIC,Staphylococcus aureus [1],8 µg/mL
same,MIC,Pseudomonas aeruginosa [2],16 µg/mL
same,MHC,[4],442 µg/mL
same,MIC,Staphylococcus aureus [5],4 µg/mL
same,MIC,Escherichia coli [6],8 µg/mL
same,HC50,[7],442 µg/mL
Ac-AARIPSRILFFALVRL-NH2,MIC,Staphylococcus aureus [1],16 µg/mL
same,MIC,Pseudomonas aeruginosa [2],> 512 µg/mL
same,Activity,Cell membrane [3],Active
same,MHC,[4],> 512 µg/mL
same,MIC,Staphylococcus aureus [5],16 µg/mL
same,MIC,Escherichia coli [6],64 µg/mL
same,HC50,[7],> 512 µg/mL
Ac-AARILSRILRFFLRVL-NH2,MIC,Staphylococcus aureus [1],128 µg/mL
same,MIC,Pseudomonas aeruginosa [2],> 512 µg/mL
same,MHC,[4],13.37 µg/mL
same,MIC,Staphylococcus aureus [5],128 µg/mL
same,MIC,Escherichia coli [6],256 µg/mL
same,HC50,[7],13.4 µg/mL
Ac-AARIPSRILFGALRVL-NH2,MIC,Staphylococcus aureus [1],128 µg/mL
same,MIC,Pseudomonas aeruginosa [2],256 µg/mL
same,pKd,Lipopolysaccharide (LPS) [8],4.41
same,MHC,[4],> 512 µg/mL
same,MIC,Staphylococcus aureus [5],128 µg/mL
same,MIC,Escherichia coli [6],64 µg/mL
same,Flu intensity,Lipopolysaccharide (LPS) [9],-95
same,MIC,Pseudomonas aeruginosa [10],512 µg/mL
same,Activity,Cell membrane [11],Active
same,HC50,[7],> 512 µg/mL
same,MIC,Escherichia coli [12],128 µg/mL
same,MIC,Pseudomonas aeruginosa [13],512 µg/mL
same,Flu intensity,Cell membrane [14],676
same,MIC,Klebsiella pneumoniae,256 µg/mL
same,MIC,Pseudomonas aeruginosa [15],128 µg/mL
same,MIC,Escherichia coli [16],128 µg/mL
same,MIC,Escherichia coli [17],128 µg/mL
same,Flu intensity,Cell membrane [18],10000
same,Activity,Cell membrane [19],Active
same,Activity,Lipid bilayer,50.1%
Ac-AARILSRILFGALRVL-NH2,MIC,Staphylococcus aureus [1],8 µg/mL
same,MIC,Pseudomonas aeruginosa [2],32 µg/mL
same,MHC,[4],51.663 µg/mL
same,MIC,Staphylococcus aureus [5],8 µg/mL
same,MIC,Escherichia coli [6],32 µg/mL
same,HC50,[7],51.7 µg/mL
Ac-AARILSRILRFALRVL-NH2,MIC,Staphylococcus aureus [1],32 µg/mL
same,MIC,Pseudomonas aeruginosa [2],> 512 µg/mL
same,MHC,[4],34.197 µg/mL
same,Activity,Cell membrane [20],Active
same,MIC,Staphylococcus aureus [5],16 µg/mL
same,MIC,Escherichia coli [6],> 512 µg/mL
same,Activity,Cell membrane [21],Active
same,HC50,[7],34.2 µg/mL
same,Activity,Cell membrane [22],Active
same,Flu intensity,Cell membrane [23],2410
Ac-AARIPSRILKGALRVL-NH2,MIC,Staphylococcus aureus [1],512 µg/mL
same,MIC,Pseudomonas aeruginosa [2],64 µg/mL
same,MHC,[4],> 512 µg/mL
same,MIC,Staphylococcus aureus [5],256 µg/mL
same,MIC,Escherichia coli [6],128 µg/mL
same,HC50,[7],> 512 µg/mL
Ac-AARILSRILRRALRVL-NH2,MIC,Staphylococcus aureus [1],4 µg/mL
same,MIC,Pseudomonas aeruginosa [2],8 µg/mL
same,Activity,Cell membrane [3],Active
same,MHC,[4],155 µg/mL
same,Activity,Cell membrane [20],Active
same,MIC,Staphylococcus aureus [5],16 µg/mL
same,MIC,Escherichia coli [6],4 µg/mL
same,Activity,Cell membrane [21],Active
same,Activity,Cell membrane [11],Active
same,HC50,[7],155 µg/mL
same,Activity,Cell membrane [22],Active
same,Flu intensity,Cell membrane [23],2300
same,Activity,Cell membrane [19],Active
Ac-AARIFSRILRGALRVL-NH2,MIC,Staphylococcus aureus [1],4 µg/mL
same,MIC,Pseudomonas aeruginosa [2],16 µg/mL
same,MHC,[4],179 µg/mL
same,MIC,Staphylococcus aureus [5],8 µg/mL
same,MIC,Escherichia coli [6],8 µg/mL
same,HC50,[7],179 µg/mL
Ac-AARIPSRILFRALRVL-NH2,MIC,Staphylococcus aureus [1],32 µg/mL
same,MIC,Pseudomonas aeruginosa [2],64 µg/mL
same,Activity,Cell membrane [3],Active
same,MHC,[4],> 512 µg/mL
same,MIC,Staphylococcus aureus [5],16 µg/mL
same,MIC,Escherichia coli [6],32 µg/mL
same,HC50,[7],> 512 µg/mL
Ac-AARIPSRILRGALRVL-NH2,MIC,Staphylococcus aureus [1],256 µg/mL
same,Activity,Lipopolysaccharide (LPS) [24],Active
same,Activity,Staphylococcus aureus [25],Active
same,MIC,Pseudomonas aeruginosa [2],32 µg/mL
same,pKd,Lipopolysaccharide (LPS) [8],6.82
same,MHC,[4],> 512 µg/mL
same,Activity,Cell membrane [20],Active
same,Activity,Lipopolysaccharide (LPS) [26],Dose-dependent-effect
same,MIC,Staphylococcus aureus [5],128 µg/mL
same,Activity,Escherichia coli [27],44.8%
same,Activity,Escherichia coli [28],Active
same,MIC,Escherichia coli [6],16 µg/mL
same,Activity,Cell membrane [21],Active
same,Flu intensity,Lipopolysaccharide (LPS) [29],195
same,MIC,Pseudomonas aeruginosa [10],128 µg/mL
same,Activity,Cell membrane [11],Active
same,Activity,Lipopolysaccharide (LPS) [30],> 90%
same,Activity,Escherichia coli [31],Active
same,HC50,[7],> 512 µg/mL
same,MIC,Escherichia coli [12],32 µg/mL
same,MIC,Pseudomonas aeruginosa [13],512 µg/mL
same,Flu intensity,Cell membrane [14],781
same,Activity,Escherichia coli [32],32.5%
same,MIC,Klebsiella pneumoniae,128 µg/mL
same,MIC,Pseudomonas aeruginosa [15],32 µg/mL
same,Activity,Staphylococcus aureus [33],Dose-dependent-effect
same,Activity,Cell membrane [34],Active
same,Activity,Cell membrane [35],Active
same,MIC,Escherichia coli [16],64 µg/mL
same,Flu intensity,Lipopolysaccharide (LPS) [36],21.5
same,Activity,Cell membrane [37],Active
same,MIC,Escherichia coli [17],64 µg/mL
same,Activity,Cell membrane [38],Active
same,Flu intensity,Cell membrane [18],30000
same,Activity,Cell membrane [19],Active
same,Activity,Lipid bilayer,10%
